Measured values taken from ChEMBL document CHEMBL4350952, “Evolution of PI3Kγ and δ Inhibitors for Inflammatory and Autoimmune Diseases” (J Med Chem, 2019).

What was measured:
Homo sapiens = species on record: Homo sapiens; test: Selectivity ratio of IC50 for PI3Kbeta in human U937 cells to IC50 for GST-tagged PI3Kdelta in human U937 cells; format: cell-based
U-937 = test: cells; format: functional, cell-based; conditions: Homo sapiens
Description: Cytotoxicity against in human U937 cells

Mus musculus [1] = species on record: Mus musculus; test: Decrease in eosinophil influx reduction in mouse at 1 ug, it relative to control; format: functional; design: scale not given: the % may be the effect or the level left
Mus musculus [2] = species on record: Mus musculus; test: Decrease in number of neutrophils in mouse BAL at 1 ug, it at 2 hrs post dose relative to control; format: functional; design: scale not given: the % may be the effect or the level left
Rattus norvegicus [3] = species on record: Rattus norvegicus; test: Decrease in number of neutrophils in rat BAL at 20 ug, it at 2 hrs post dose relative to control; format: functional; design: scale not given: the % may be the effect or the level left
Mus musculus [4] = species on record: Mus musculus; test: Decrease in number of neutrophils in mouse BAL at 4 ug, it at 8 hrs post dose relative to control; format: functional; design: scale not given: the % may be the effect or the level left
Rattus norvegicus [5] = species on record: Rattus norvegicus; test: Decrease in number of neutrophils in rat BAL at 100 ug, it at 2 hrs post dose relative to control; format: functional; design: scale not given: the % may be the effect or the level left
Mus musculus [6] = species on record: Mus musculus; test: Decrease in eosinophil influx reduction in mouse at 4 ug, it relative to control; format: functional; design: scale not given: the % may be the effect or the level left
Mus musculus [7] = species on record: Mus musculus; test: Decrease in neutrophil influx reduction in mouse at 20 ug, it relative to control; format: functional; design: scale not given: the % may be the effect or the level left
Mus musculus [8] = species on record: Mus musculus; test: Decrease in number of neutrophils in mouse BAL at 4 ug, it at 12 hrs post dose relative to control; format: functional; design: scale not given: the % may be the effect or the level left
Mus musculus [9] = species on record: Mus musculus; test: Decrease in number of neutrophils in mouse BAL at 4 ug, it at 2 hrs post dose relative to control; format: functional; design: scale not given: the % may be the effect or the level left
Mus musculus [10] = species on record: Mus musculus; test: Decrease in eosinophil influx reduction in mouse at 20 ug, it relative to control; format: functional; design: scale not given: the % may be the effect or the level left
Rattus norvegicus [11] = species on record: Rattus norvegicus; test: Decrease in number of neutrophils in rat BAL at 20 ug, it at 8 hrs post dose relative to control; format: functional; design: scale not given: the % may be the effect or the level left
Mus musculus [12] = species on record: Mus musculus; test: Decrease in number of neutrophils in mouse BAL at 20 ug, it at 2 hrs post dose relative to control; format: functional; design: scale not given: the % may be the effect or the level left
Mus musculus [13] = species on record: Mus musculus; test: Decrease in neutrophil influx reduction in mouse at 4 ug, it relative to control; format: functional; design: scale not given: the % may be the effect or the level left
Rattus norvegicus [14] = species on record: Rattus norvegicus; test: Decrease in number of neutrophils in rat BAL at 5 ug, it at 2 hrs post dose relative to control; format: functional; design: scale not given: the % may be the effect or the level left
Rattus norvegicus [15] = species on record: Rattus norvegicus; test: Decrease in number of neutrophils in rat BAL at 20 ug, it at 12 hrs post dose relative to control; format: functional; design: scale not given: the % may be the effect or the level left
Mus musculus [16] = species on record: Mus musculus; test: Decrease in neutrophil influx reduction in mouse at 1 ug, it relative to control; format: functional; design: scale not given: the % may be the effect or the level left

With COCCOCCOCC#Cc1cccc2nc(Cn3nc(-c4cc(O)cc(F)c4)c4c(N)ncnc43)n(Cc3ccccc3C(F)(F)F)c(=O)c12 the Ratio IC50 (Homo sapiens) was 2000, the IC50 (U-937) was 7.4 nM and the Activity (Mus musculus [1]) was 20%. The Activity (Mus musculus [2]) was 19%, the Activity (Rattus norvegicus [3]) was 58% and the Activity (Mus musculus [4]) was 45%. The Activity (Rattus norvegicus [5]) was 73%, the Activity (Mus musculus [6]) was 85% and the Activity (Mus musculus [7]) was 80%. The Activity (Mus musculus [8]) was 23%, the Activity (Mus musculus [9]) was 53% and the Activity (Mus musculus [10]) was 91%. The Activity (Rattus norvegicus [11]) was 33%, the Activity (Mus musculus [12]) was 68% and the Activity (Mus musculus [13]) was 70%. For the same compound, the Activity (Rattus norvegicus [14]) was 9%, the Activity (Rattus norvegicus [15]) was 10% and the Activity (Mus musculus [16]) was 18%.
